Laboratory results reported in EP3782997A1, “FUSED PYRIMIDINE COMPOUNDS AND PHARMACEUTICAL COMPOSITIONS THEREOF FOR THE TREATMENT OF FIBROTIC DISEASES” (Galapagos N.V., priority 2019, dated 2021).

What follows are compounds tested against hENPP2 (Homo sapiens, UniProt Q13822) (assay: Human ENPP2 (hENPP2) biochemical assay using LPC as substrate). Details: 150 µM LPC (palmitoyl 16:0), 37°C for 30 min.
Procedure: The principle of the assay conswasts in quantifying the released choline with an enzymatic method using choline oxidase and peroxidase. Choline oxydation by choline oxydase releases betaine and peroxide. The latter was quantified in presence of HRP that converts the peroxide detection agent TOOS (CAS# 82692-93-1) and 4-aminoantipyrine into quinoneimine dye. The appearance of quinoneimine dye was measured spectrophotometrically at 555 nm and was proportional to the amount of choline released by ENPP2. Inhibition of ENPP2 results in a decrease of the signal.
Compound IC50 values were determined in a hENPP2 (UniProtKB/SwwassProt Sequence ref Q13822) biochemical assay using LPC as substrate.
5 µL of a dilution series of compound, starting from 50 µM highest concentration, 1/3 dilution, was added to the wells. hENPP2 was used at a final concentration of 1 µg/mL or 3 µg/mL (it will be appreciated by the skilled person that the potency read out was independent of the enzyme concentration). The enzyme was diluted in 50 mM Trwas-HCl pH 8.5, 500 mM NaCl, 5 mM KCl, 10 mM CaCl2, 0.1% fatty acid free BSA in a total volume of 10 µL. The reaction was started by the addition of 10 µL of 150 µM LPC (palmitoyl 16:0; Avanti Polar Lipids, Inc., Cat# 855675) diluted in the same buffer as described above and the mixture was incubated at 37°C for 30 min. The reaction was terminated and choline quantified by the addition of a 25 µL of a mixture containing 0.6 U/mL of choline oxidase, 0.6 U/mL of peroxydase, 1.8 mM TOOS, 1.2 mM amino-antipyrine, 20 mM EGTA (stop-developer solution) diluted in the buffer described above. […] was read on an Envision plate reader (PerkinElmer, Inc.) after an incubation of 30 min at room temperature (excitation 555 nm).

IC50 [nM]	Compound
100 to 500	Cc1cc(C)cc(Nc2ncc3c(n2)CCN(C2CCN(C(=O)c4ccc5[nH]nnc5c4)[C@@H](C)C2)CC3)c1 (stereo partly drawn) [Cpd 142, 1H-benzotriazol-5-yl-[(2S)-4-[2-(3,5-dimethylanilino)-5,6,8,9-tetrahydropyrimido[4,5-d]azepin-7-yl]-2-methyl-1-piperidyl]methanone]
> 1000	Cc1cc(C)cc(Nc2ncc3c(n2)CN([C@@H]2CCN(C(=O)c4cccc(C(=O)O)c4)[C@H](C)C2)C3)c1 [Cpd 146, 3-[(2R,4R)-4-[2-(3,5-dimethylanilino)-5,7-dihydropyrrolo[3,4-d]pyrimidin-6-yl]-2-methyl-piperidine-1-carbonyl]benzoic acid]
> 1000	Cc1cc(C)cc(Nc2ncc3c(n2)CN([C@@H]2CCN(C(=O)c4ccc(-c5nnn[nH]5)cc4)[C@H](C)C2)C3)c1 [Cpd 153, [(2R,4R)-4-[2-(3,5-dimethylanilino)-5,7-dihydropyrrolo[3,4-d]pyrimidin-6-yl]-2-methyl-1-piperidyl]-[4-(1H-tetrazol-5-yl)phenyl]methanone]
0.01 to 100	Cc1cc(C)cc(Nc2ncc3c(n2)CCN(C2(C)CCN(C(=O)c4ccc5[nH]nnc5c4)CC2)C3)c1 [Cpd 158, 1H-benzotriazol-5-yl-[4-[2-(3,5-dimethylanilino)-7,8-dihydro-5H-pyrido[4,3-d]pyrimidin-6-yl]-4-methyl-1-piperidyl]methanone]
0.01 to 100	C[C@@H]1C[C@H](N2Cc3cnc(Nc4ccc(C#N)cc4)nc3C2)CCN1C(=O)c1ccc2[nH]nnc2c1 [Cpd 160, 4-[[6-[(2R,4R)-1-(1H-benzotriazole-5-carbonyl)-2-methyl-4-piperidyl]-5,7-dihydropyrrolo[3,4-d]pyrimidin-2-yl]amino]benzonitrile]
100 to 500	Cc1cc(C)cc(Nc2ncc3c(n2)CCN(C2CN(C(=O)c4ccc5[nH]nnc5c4)C2)C3)c1 [compound 2, 1H-benzotriazol-5-yl-[3-[2-(3,5-dimethylanilino)-7,8-dihydro-5H-pyrido[4,3-d]pyrimidin-6-yl]azetidin-1-yl]methanone]
0.01 to 100	Cc1cc(C)cc(Nc2ncc3c(n2)CCN(C2CCN(C(=O)c4ccc5[nH]c(=O)oc5c4)C2)C3)c1 (stereo not drawn) [compound 4, 6-[3-[2-(3,5-dimethylanilino)-7,8-dihydro-5H-pyrido[4,3-d]pyrimidin-6-yl]pyrrolidine-1-carbonyl]-3H-1,3-benzoxazol-2-one]
100 to 500	Cc1cc(C)cc(Nc2ncc3c(n2)CCN(C2CCN(C(=O)c4ccc5[nH]nnc5c4)C2)C3)c1 (stereo not drawn) [compound 5, 1H-benzotriazol-5-yl-[3-[2-(3,5-dimethylanilino)-7,8-dihydro-5H-pyrido[4,3-d]pyrimidin-6-yl]pyrrolidin-1-yl]methanone]
0.01 to 100	O=C(c1ccc2[nH]c(=O)oc2c1)N1CC(N2Cc3cnc(Nc4cc(C(F)(F)F)cc(C(F)(F)F)c4)nc3C2)C1 [compound 6, 6-[3-[2-[3,5-bis(trifluoromethyl)anilino]-5,7-dihydropyrrolo[3,4-d]pyrimidin-6-yl]azetidine-1-carbonyl]-3H-1,3-benzoxazol-2-one]
100 to 500	Cc1cc(C)cc(Nc2ncc3c(n2)CCN(C2CCN(C(=O)c4ccc5[nH]c(=O)oc5c4)CC2)C3)c1 [compound 7, 6-[4-[2-(3,5-dimethylanilino)-7,8-dihydro-5H-pyrido[4,3-d]pyrimidin-6-yl]piperidine-1-carbonyl]-3H-1,3-benzoxazol-2-one]
0.01 to 100	O=C(c1ccc2[nH]c(=O)oc2c1)N1CC(N2CCc3nc(Nc4cc(C(F)(F)F)cc(C(F)(F)F)c4)ncc3C2)C1 [compound 8, 6-[3-[2-[3,5-bis(trifluoromethyl)anilino]-7,8-dihydro-5H-pyrido[4,3-d]pyrimidin-6-yl]azetidine-1-carbonyl]-3H-1,3-benzoxazol-2-one]
0.01 to 100	O=C(c1ccc2[nH]nnc2c1)N1CC(N2Cc3cnc(Nc4cc(C(F)(F)F)cc(C(F)(F)F)c4)nc3C2)C1 [compound 9, 1H-benzotriazol-5-yl-[3-[2-[3,5-bis(trifluoromethyl)anilino]-5,7-dihydropyrrolo[3,4-d]pyrimidin-6-yl]azetidin-1-yl]methanone]
0.01 to 100	Cc1cc(C)cc(Nc2ncc3c(n2)CN(C2CCN(C(=O)c4ccc5[nH]nnc5c4)CC2)C3)c1 [compound 10, 1H-benzotriazol-5-yl-[4-[2-(3,5-dimethylanilino)-5,7-dihydropyrrolo[3,4-d]pyrimidin-6-yl]-1-piperidyl]methanone]
0.01 to 100	Cc1cc(C)cc(Nc2ncc3c(n2)CN(C2CCN(C(=O)c4ccc5[nH]c(=O)oc5c4)CC2)C3)c1 [compound 11, 6-[4-[2-(3,5-dimethylanilino)-5,7-dihydropyrrolo[3,4-d]pyrimidin-6-yl]piperidine-1-carbonyl]-3H-1,3-benzoxazol-2-one]
0.01 to 100	Cc1cc(C)cc(Nc2ncc3c(n2)CN(C2CCN(C(=O)c4ccc5[nH]c(=O)oc5c4)C2)C3)c1 (stereo not drawn) [compound 12, 6-[3-[2-(3,5-dimethylanilino)-5,7-dihydropyrrolo[3,4-d]pyrimidin-6-yl]pyrrolidine-1-carbonyl]-3H-1,3-benzoxazol-2-one]
100 to 500	Cc1cc(C)cc(Nc2ncc3c(n2)CN(C2CCN(C(=O)c4ccc5[nH]nnc5c4)C2)C3)c1 (stereo not drawn) [compound 13, 1H-benzotriazol-5-yl-[3-[2-(3,5-dimethylanilino)-5,7-dihydropyrrolo[3,4-d]pyrimidin-6-yl]pyrrolidin-1-yl]methanone]
0.01 to 100	O=C(c1ccc2[nH]c(=O)oc2c1)N1CC(N2CCc3nc(Nc4cc(Cl)cc(C(F)(F)F)c4)ncc3C2)C1 [compound 14, 6-[3-[2-[3-chloro-5-(trifluoromethyl)anilino]-7,8-dihydro-5H-pyrido[4,3-d]pyrimidin-6-yl]azetidine-1-carbonyl]-3H-1,3-benzoxazol-2-one]
0.01 to 100	Cc1cc(Cl)cc(Nc2ncc3c(n2)CCN(C2CN(C(=O)c4ccc5[nH]c(=O)oc5c4)C2)C3)c1 [compound 15, 6-[3-[2-(3-chloro-5-methyl-anilino)-7,8-dihydro-5H-pyrido[4,3-d]pyrimidin-6-yl]azetidine-1-carbonyl]-3H-1,3-benzoxazol-2-one]
100 to 500	Cc1cc(Cl)cc(Nc2ncc3c(n2)CCN(C2CN(C(=O)c4ccc5[nH]nnc5c4)C2)C3)c1 [compound 16, 1H-benzotriazol-5-yl-[3-[2-(3-chloro-5-methyl-anilino)-7,8-dihydro-5H-pyrido[4,3-d]pyrimidin-6-yl]azetidin-1-yl]methanone]
0.01 to 100	O=C(c1ccc2[nH]c(=O)oc2c1)N1CC(N2Cc3cnc(Nc4cc(Cl)cc(C(F)(F)F)c4)nc3C2)C1 [compound 17, 6-[3-[2-[3-chloro-5-(trifluoromethyl)anilino]-5,7-dihydropyrrolo[3,4-d]pyrimidin-6-yl]azetidine-1-carbonyl]-3H-1,3-benzoxazol-2-one]
0.01 to 100	Cc1cc(C)cc(Nc2ncc3c(n2)CN(C2CN(C(=O)c4ccc5[nH]nnc5c4)C2)C3)c1 [compound 18, 1H-benzotriazol-5-yl-[3-[2-(3,5-dimethylanilino)-5,7-dihydropyrrolo[3,4-d]pyrimidin-6-yl]azetidin-1-yl]methanone]
100 to 500	Cc1cc(C)cc(Nc2ncc3c(n2)CN(C2CN(C(=O)c4ccc5[nH]ncc5c4)C2)C3)c1 [compound 19, [3-[2-(3,5-dimethylanilino)-5,7-dihydropyrrolo[3,4-d]pyrimidin-6-yl]azetidin-1-yl]-(1H-indazol-5-yl)methanone]
> 1000	Cc1cc(C)cc(Nc2ncc3c(n2)CN(C2CN(C(=O)c4cccc(S(N)(=O)=O)c4)C2)C3)c1 [compound 20, 3-[3-[2-(3,5-dimethylanilino)-5,7-dihydropyrrolo[3,4-d]pyrimidin-6-yl]azetidine-1-carbonyl]benzenesulfonamide]
0.01 to 100	COc1cc(Nc2ncc3c(n2)CN(C2CN(C(=O)c4ccc5[nH]c(=O)oc5c4)C2)C3)cc(OC)c1 [compound 21, 6-[3-[2-(3,5-dimethoxyanilino)-5,7-dihydropyrrolo[3,4-d]pyrimidin-6-yl]azetidine-1-carbonyl]-3H-1,3-benzoxazol-2-one]
0.01 to 100	O=C(c1ccc2[nH]nnc2c1)N1CC(N2Cc3cnc(Nc4cc(Cl)cc(C(F)(F)F)c4)nc3C2)C1 [compound 22, 1H-benzotriazol-5-yl-[3-[2-[3-chloro-5-(trifluoromethyl)anilino]-5,7-dihydropyrrolo[3,4-d]pyrimidin-6-yl]azetidin-1-yl]methanone]
0.01 to 100	COc1cc(C)cc(Nc2ncc3c(n2)CN(C2CN(C(=O)c4ccc5[nH]nnc5c4)C2)C3)c1 [compound 24, 1H-benzotriazol-5-yl-[3-[2-(3-methoxy-5-methyl-anilino)-5,7-dihydropyrrolo[3,4-d]pyrimidin-6-yl]azetidin-1-yl]methanone]
> 1000	Cc1cc(C)cc(Nc2ncc3c(n2)CN(C2CN(C(=O)c4ccc(=O)[nH]c4)C2)C3)c1 [compound 26, 5-[3-[2-(3,5-dimethylanilino) -5,7-dihydropyrrolo[3,4-d]pyrimidin-6-yl]azetidine-1-carbonyl]-1H-pyridin-2-one]
